Results on 4 molecules are retold here after patent US5489524A, “Chimeric protein that has a human Rho motif and deoxyribonuclease activity” (The United States of America as represented by the …, priority 1992, dated 1996).

This experiment concerns Mammalian Endo-Exonuclease. As to the kind of experiment: ss- and ds-DNase activities of the purified endo-exonuclease with divalent metal ions, NaCl, ATP or GTP (release of acid-soluble radioactivity from 32P-labeled pBR322 DNA). It counts as biochemical, Monkey. The settings on record: for Activity % ds-DNase / Activity % ss-DNase: 37° C. The protocol: The assay mixture contained 100 mM Tris-HCl pH 8.0, 10 mM MgCl2, and 17 μg of ^32 P-labelled linearized plasmid DNA. One unit of activity is defined as the amount of deoxyribonuclease which renders 1 μg of DNA acid-soluble in 30 min at 37° C. The plasmid was labeled using a random oligo-priming kit (Pharmacia Fine Chemical).
The ratios are calculated with respect to the activity of 10 mM Mg^2+ (100%).
The nuclease activities of putative recombination nucleases of E. coli are known to be affected by ATP. Moreover S. cerevisiae endo-exonuclease is believed to contain a region homologous to GTP-binding sites. The effects of ATP and GTP on the purified mammalian endo-exonuclease were therefore chosen to study.

Setting [1] is: metal ion 0.5 mM, activity with 10 mM Mg^2+ = 100%.
Setting [2] is: metal ion 5.0 mM, activity with 10 mM Mg^2+ = 100%.
Where [3] appears, read: metal ion 10.0 mM, reference = 100%.
[4] abbreviates: metal ion […], activity with 10 mM Mg^2+ = 100%.
Where [5] appears, read: metal ion 0.1 mM, activity with 10 mM Mg^2+ = 100%.
The mark [6] stands for this setting: metal ion 1.0 mM, activity with 10 mM Mg^2+ = 100%.
[7] abbreviates: 0.1 mM nucleotide added, 10 mM Mg^2+.
The mark [8] stands for this setting: 1.0 mM nucleotide added, 10 mM Mg^2+.

Where only a bound is given, the exact number is not on record here.

Regarding `[Mg+2]` [Mg^2+], the “optimal concentration for ds-DNase” value was 2.5 mM and the “optimal concentration for ss-DNase” value is listed as 0.5 mM. In addition, the “Ratio of Activities for ss/ds-DNase” value (metal ion 0.5 mM) is reported as 2.2. Under setting [1], the “Activity % ds-DNase” value turned out to be 128% and the “Activity % ss-DNase” value is reported as 217%. Further, under setting [2], the “Activity % ds-DNase” value is listed as 120% and the “Activity % ss-DNase” value was 173%. Also, the “Ratio of Activities for ss/ds-DNase” value (metal ion 10.0 mM) is 1.3. Moreover, under setting [3], the “Activity % ds-DNase” value is reported as 100% and the “Activity % ss-DNase” value was found to be 100%. Besides, under setting [4], the “Activity % ds-DNase” value turned out to be 168% and the “Activity % ss-DNase” value came to 203%.
Take `[Zn+2]` [Zn^2+]: the “ability to replace Mg^2+ as cofactor” value is “partially substitute for Mg^2+” and the “concentration with inhibitory effects on the nuclease activities” value is given as ≥ 0.25 mM. Also, under setting [5], the “Activity % ds-DNase” value turned out to be 70% and the “Activity % ss-DNase” value came to 75%. For the same molecule, under setting [1], the “Activity % ds-DNase” value came to 0% and the “Activity % ss-DNase” value turned out to be 0%. Also, under setting [6], the “Activity % ss-DNase” value is 0%. Besides, under setting [4], the “Activity % ds-DNase” value was 0% and the “Activity % ss-DNase” value is recorded as 0%.
For `[Mn+2]` [Mn^2+], the “ability to replace Mg^2+ as cofactor” value was “partially substitute for Mg^2+” and the “concentration with inhibitory effects on the nuclease activities” value is ≥ 2.0 mM. For the same molecule, the “Ratio of Activities for ss/ds-DNase” value (metal ion 0.5 mM) is reported as 1.7. For the same molecule, under setting [1], the “Activity % ds-DNase” value is 195% and the “Activity % ss-DNase” value is on record as 258%. Also, the “Ratio of Activities for ss/ds-DNase” value (metal ion 1.0 mM) was 1.4. For the same molecule, under setting [6], the “Activity % ds-DNase” value worked out at 212% and the “Activity % ss-DNase” value is given as 215%. Where the note is “metal ion 2.0 mM, activity with 10 mM Mg^2+ = 100%”, the “Activity % ss-DNase” value came out at 0%. Under setting [2], the “Activity % ss-DNase” value amounted to 0%. Under setting [4], the “Activity % ds-DNase” value was 0% and the “Activity % ss-DNase” value came to 0%.
As for `Nc1nc2c(ncn2[C@@H]2O[C@H](COP(=O)(O)OP(=O)(O)OP(=O)(O)O)[C@@H](O)[C@H]2O)c(=O)[nH]1` [GTP], the “effect on ds-DNase activity” value (0.1 mM) is given as “slight enhancement of ds-DNase activity”. Moreover, under setting [7], the “Activity % ds-DNase” value came to 112% and the “Activity % ss-DNase” value was determined as 85%. Further, under setting [8], the “Activity % ds-DNase” value was 73% and the “Activity % ss-DNase” value is recorded as 68%. Moreover, the “effect on ss-DNase and ds-DNase activities” value (0.1-1.0 mM) is reported as “slightly inhibited”.
